Laboratory results reported in US20110184018A1, “METHOD FOR TREATING PERIPHERAL NEUROPATHIC PAIN” (LOHOCLA RESEARCH CORPORATION, priority 2005, published 2011).

Legend:
Format in all cases: cell-based
CB1 receptor = molecular target: T1, CB1 receptor (Homo sapiens, UniProt P21554); assay: cAMP accumulation in HEK293 cells transfected with AC5, D1AR, CB1R
T1 construct: expressed in transfected cells; host or cells: HEK293 cells (ATCC), calcium phosphate transfection
Description: HEK293 cells were obtained from American Type Culture Collection (Manassas, Va.). Cells were cultured in 225 mL flasks containing 39 mL of MEM containing 10% fetal bovine serum, penicillin (50 μg/mL), streptomycin (50 μg/mL), and neomycin (100 μg/mL). The flasks were maintained in a humidified atmosphere of 95% air and 5% CO2 at about 37° C. Transfection was performed by the method of DNA precipitation with calcium phosphate 1 day after HEK 293 cells were transferred to small flasks (75 mL) at the density of approximately 60 to 80% confluence. Plasmid DNA containing AC5 or AC7 cDNA (11.5 μg), plasmid DNA carrying the human D1A dopamine receptor cDNA (3 μg) and CB1 receptor cDNA (3 μg), and pCMS-EGFP (1 μg) were used for each small flask, which also contained 13 mL of the culture medium. The amount of DNA per flask was adjusted to a total of 26 μg using vector DNA. Transfection efficiency was routinely monitored by observing the expression of enhanced green fluorescent protein (GFP) by an epifluorescence microscope equipped with a filter set (excitation, 480/40 nm; emission, 535/50 nm) and a dichroic mirror (T89002bs; Chroma Technology, Rockingham, Vt.). After transfection, cells were harvested and transferred into 24-well culture plates. The transfected cells were cultured for 1 to 2 days before the cAMP accumulation experiments were carried out.
After labeling and intracellular ATP pool with 3.0 μCi/mL of [2,8-^3H]adenine, cells were incubated in DMEM (0.5 mL/well) without phenol red, buffered to pH 7.1 with 20 mM of 4-(2-hydroxyethyl)-1-piperazineethanesulfonic acid (HEPES) for 30 minutes at 37° C.
To determine the effect of the DCUK-OEt or other compounds on the function of the CB1 receptor, the cells were treated with the phosphodiesterase inhibitor, IBMX (500 μM), for 10 minutes at 37° C., followed by the addition of D1A receptor agonist, dopamine (DA) (1 μM), in the presence of a known CB1 agonist or agonist, plus a CB1 antagonist for 5 minutes. The following agonist and antagonist were used: CB1 receptor agonist, ACEA (10 μM); CB1 receptor antagonist, AM251 (10 μM). In additional reactions, the addition of DA was accompanied by addition of DCUK-OEt (10 μM) or DCUK-OEt together with AM251 (10 μM). In a final set of reactions DCUK-OEt was added with ACEA (10 μM), to assess whether DCUK-OEt acted like a CB1 receptor antagonist. The reactions were terminated by adding 50 μL of 100% (w/v) tricholoroacetic acid. ATP and cAMP were separated through Dowex 50 and neutral alumina columns as is known in the art, and quantified by liquid scintillation counting. [α-^32P]ATP and 8-[^14C]cAMP were added as internal standards to monitor the recovery of ATP and cAMP through column chromatography. Conversion of [^3H] ATP into [^3H]cAMP was calculated as follows: [^3H]cAMP (%)=[^3H]cAMP (cpm)/([^3H]ATP (cpm)+[^3H]cAMP (cpm))·100. [^3H]cAMP (%) values obtained from cells which underwent only the 10-minute IBMX incubation period before the addition of trichloroacetic acid, were used as blanks and these values were subtracted from the values obtained from cells which underwent the 1-minute incubation period with DA in the presence or absence of other agonists/antagonists. Each condition was assayed in triplicate and the whole experimental procedure was repeated 4 times. The ratio of cAMP accumulation was calculated for all treatment groups versus DA treatment group (100%) and the values were averaged among the four batches of experiments.

[1] = molecular target: rat brain type IIA Na+ channel (Nav1.2) (Rattus norvegicus, UniProt P04775); assay: Whole-cell patch clamp recordings of Na+ currents in CNaIIA-1 cells; conditions: fit of shift of inactivation curve
[2] = system: primary cultures of rat cerebellar granule cells; assay: Glutamate-induced excitotoxic cell death; conditions: 100 micromolar glutamate
Description: Glutamate Excitotoxicity. Primary cultures of cerebellar granule cells were prepared from 7-day-old Sprague-Dawley rats. The cultures were maintained in plates containing 24 wells (volume of 1 mL/well). Culture density was about 1.5×10^6 cells/mL. Cell viability was assayed after 7 or 8 days in culture by the production of fluorescein, formed from fluorescein diacetate by esterases present in living cells. Cells were washed with magnesium ion-free Locke's buffer, and then exposed to 100 μM glutamate alone, glutamate and 10 μM glycine, or each of these conditions in the presence of 100 μM DCUKA or 100 μM DCUK-OMe at 25° C. for 30 minutes. DCUKA and DCUK-OMe were added in 2-μl aliquots to yield a final DMSO concentration of 0.2%. […] Fluorescence of each well was measured on a Perkin-Elmer HTS7000 plate reader (excitation 485 nm; emission 535 nm; 16 measurements per well) with optimal gain settings. For each 24-well plate, the fluorescence of one control culture well (i.e., not exposed to glutamate) was automatically set to the highest fluorescence value, and fluorescence values were determined in all other wells with the same gain settings. Fluorescence measurements in all 24 wells were normalized to the control culture and expressed as a percentage of this value. Data are expressed as percentage of cell death (100-percentage of control). […]

T1 sequence (P21554 whole entry): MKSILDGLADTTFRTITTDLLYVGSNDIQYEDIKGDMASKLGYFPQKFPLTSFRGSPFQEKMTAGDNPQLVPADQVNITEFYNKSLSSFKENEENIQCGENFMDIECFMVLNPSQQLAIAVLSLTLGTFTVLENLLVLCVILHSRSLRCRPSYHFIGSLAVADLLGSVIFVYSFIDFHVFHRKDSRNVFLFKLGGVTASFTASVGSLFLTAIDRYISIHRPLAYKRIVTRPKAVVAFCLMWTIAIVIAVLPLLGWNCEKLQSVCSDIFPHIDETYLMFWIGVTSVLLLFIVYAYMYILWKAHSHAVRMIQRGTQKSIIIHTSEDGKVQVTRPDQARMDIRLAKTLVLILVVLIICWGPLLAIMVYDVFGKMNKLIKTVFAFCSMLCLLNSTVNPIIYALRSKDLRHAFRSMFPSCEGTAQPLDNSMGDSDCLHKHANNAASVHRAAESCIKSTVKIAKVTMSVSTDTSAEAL
Sequence of rat brain type IIA Na+ channel (Nav1.2) (P04775 whole entry): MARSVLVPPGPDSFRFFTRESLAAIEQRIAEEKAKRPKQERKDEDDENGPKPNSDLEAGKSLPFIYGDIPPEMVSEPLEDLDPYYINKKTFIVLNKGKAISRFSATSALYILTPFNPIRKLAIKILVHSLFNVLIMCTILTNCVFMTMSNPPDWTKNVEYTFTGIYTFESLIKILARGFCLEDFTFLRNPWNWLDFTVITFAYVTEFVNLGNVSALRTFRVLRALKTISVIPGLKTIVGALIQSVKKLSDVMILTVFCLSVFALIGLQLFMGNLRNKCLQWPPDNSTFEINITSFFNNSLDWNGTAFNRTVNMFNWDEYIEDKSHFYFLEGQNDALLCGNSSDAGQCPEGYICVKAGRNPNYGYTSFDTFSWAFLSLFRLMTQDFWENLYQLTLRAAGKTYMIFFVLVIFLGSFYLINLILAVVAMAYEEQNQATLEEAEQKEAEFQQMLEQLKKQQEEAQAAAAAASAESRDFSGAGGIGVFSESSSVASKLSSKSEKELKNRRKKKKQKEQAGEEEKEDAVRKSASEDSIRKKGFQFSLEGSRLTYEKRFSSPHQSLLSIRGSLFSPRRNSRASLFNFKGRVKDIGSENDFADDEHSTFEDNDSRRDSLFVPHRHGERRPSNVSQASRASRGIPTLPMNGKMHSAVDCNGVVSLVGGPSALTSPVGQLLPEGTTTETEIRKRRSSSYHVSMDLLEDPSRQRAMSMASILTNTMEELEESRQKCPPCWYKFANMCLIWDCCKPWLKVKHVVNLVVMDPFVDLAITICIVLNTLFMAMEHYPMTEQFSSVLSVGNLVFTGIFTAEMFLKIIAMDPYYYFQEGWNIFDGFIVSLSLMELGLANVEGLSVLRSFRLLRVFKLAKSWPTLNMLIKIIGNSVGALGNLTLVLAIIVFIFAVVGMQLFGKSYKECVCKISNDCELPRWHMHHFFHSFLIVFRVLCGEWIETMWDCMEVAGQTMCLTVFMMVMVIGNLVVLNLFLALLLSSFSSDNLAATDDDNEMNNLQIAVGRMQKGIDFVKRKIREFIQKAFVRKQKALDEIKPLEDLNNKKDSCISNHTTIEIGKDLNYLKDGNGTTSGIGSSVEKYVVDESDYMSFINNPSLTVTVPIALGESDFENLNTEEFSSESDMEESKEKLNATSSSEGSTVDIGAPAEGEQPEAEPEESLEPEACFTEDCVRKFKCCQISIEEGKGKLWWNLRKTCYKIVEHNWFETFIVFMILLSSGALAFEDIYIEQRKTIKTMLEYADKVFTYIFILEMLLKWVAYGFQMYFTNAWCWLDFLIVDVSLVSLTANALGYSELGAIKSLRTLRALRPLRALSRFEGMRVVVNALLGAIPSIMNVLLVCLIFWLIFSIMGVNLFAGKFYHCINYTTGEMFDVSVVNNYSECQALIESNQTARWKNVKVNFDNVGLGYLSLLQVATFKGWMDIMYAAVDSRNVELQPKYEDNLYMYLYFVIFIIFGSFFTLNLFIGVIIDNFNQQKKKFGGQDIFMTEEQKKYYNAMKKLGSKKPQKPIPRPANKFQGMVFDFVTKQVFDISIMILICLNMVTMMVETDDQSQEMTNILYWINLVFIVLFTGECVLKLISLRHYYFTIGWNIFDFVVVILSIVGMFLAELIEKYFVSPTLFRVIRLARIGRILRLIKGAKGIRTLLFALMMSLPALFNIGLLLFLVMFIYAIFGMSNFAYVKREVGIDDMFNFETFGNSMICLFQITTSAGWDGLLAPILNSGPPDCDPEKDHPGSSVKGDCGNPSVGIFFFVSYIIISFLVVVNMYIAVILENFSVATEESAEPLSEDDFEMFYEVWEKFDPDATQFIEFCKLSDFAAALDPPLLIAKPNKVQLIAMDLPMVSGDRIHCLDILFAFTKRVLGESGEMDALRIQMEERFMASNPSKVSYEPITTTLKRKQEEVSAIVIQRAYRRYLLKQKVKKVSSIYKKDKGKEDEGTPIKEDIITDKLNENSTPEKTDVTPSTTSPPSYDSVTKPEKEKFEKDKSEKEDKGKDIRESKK

Row | Compound | effect on DA stimulated cAMP production with AM251 added (CB1 receptor; AM251 10 μM) | reversal of the effects of ACEA (CB1 receptor; added with ACEA 10 μM) | effect on DA stimulated cAMP production (CB1 receptor; dopamine 1 μM, compound 10 μM) | Ki ([1]; read-out: KI, dissociation constant for inactivated states) [µM] | Kd ([1]; read-out: KR, dissociation constant for the resting state) [µM] | protection from glutamate-induced damage ([2]; 100 μM compound) | reduction of cell death ([2]; 10 micromolar compound)
1 | CCOC(=O)c1cc(NC(=O)N(c2ccccc2)c2ccccc2)c2c(Cl)cc(Cl)cc2n1 [DCUK-OEt, N,N-diphenyl-4-ureido-5,7-dichloro-2-carboxy quinoline ethyl ester] | reversed by AM251 | did not reverse the effects of ACEA | reduced DA stimulated cAMP production | – | – | – | –
2 | O=C(O)c1cc(NC(=O)N(c2ccccc2)c2ccccc2)c2c(Cl)cc(Cl)cc2n1 [DCUKA, N,N-diphenyl-4-ureido-5,7-dichloro-2-carboxyquinoline] | – | – | – | 9.8 | 244 | completely protected | more than 50%
